Data from patent publication US7183383B2, “Uses of collagen IV” (The University of Arkansas for Medical Sciences, priority 2002, dated 2007).

Experiments:
[1] = test system: Na^+/K^+-ATPase activity in renal proximal tubular cells; test: Na^+/K^+-ATPase activity (ouabain-sensitive ATPase); type: cell-based, rabbit
Description: Confluent monolayers of renal proximal tubular cells (day 6 after seeding) were exposed to 200 μM S-(1,2-dichlorovinyl)-L-cysteine (dissolved in water) for 1.75 hours followed by toxicant removal and addition of fresh culture media. This method produces approximately 50% cell death and loss 24 hours after the exposure. On days 1, 4, and 6 following S-(1,2-dichlorovinyl)-L-cysteine exposure, the ability of the remaining renal proximal tubular cells to regenerate and repair physiological function was monitored as described below. In some experiments, immediately after S-(1,2-dichlorovinyl)-L-cysteine exposure and after daily media change through day 6 after injury, collagen I (0, 5, 15, or 50 μg/ml), collagen IV (0, 5, 15, or 50 μg/ml), laminin (50 μg/ml), or cellular fibronectin (50 μg/ml) was added to the culture media of uninjured and S-(1,2-dichlorovinyl)-L-cysteine-injured renal proximal tubular cells grown in physiological concentrations of AscP. Exogenous collagens I and IV used in this study were triple helical and contained only α1 and α2 chains in conformations similar to those found in the renal basement membrane (3, 25). Laminin was a mixture of biologically active laminin chains found in most epithelial tissues (8, 50) and cellular fibronectin was composed of functional dimers (51).
On days 1 and 6 after sublethal S-(1,2-dichlorovinyl)-L-cysteine injury, total ATPase activity was measured using a modification of a previously described procedure (44). Briefly, renal proximal tubular cells cultured in 48-well cell culture clusters were scraped and incubated in dissociation buffer (5 mM HEPES (pH 7.4), 25 mM imidazole, 1% BSA, 0.065% sodium dodecyl sulfate (SDS)) for 10 min. at room temperature and placed on ice. The dissociated renal proximal tubular cells were then diluted 5-fold with additional dissociation buffer minus SDS. Aliquots of dissociated renal proximal tubular cells were combined with fresh ATPase assay buffer (2.54 mM MgCl2, 100 mM NaCl, 10 mM KCl, 5 mM HEPES, 10 U/ml lactate dehydrogenase, 7 U/ml pyruvate kinase, 2.54 mM Na2ATP, 2.54 mM phospho(enol)pyruvate, and 0.5 mM β-NADH). ATPase activity was measured under linear conditions spectrophotometrically as the oxidation of β-NADH to NAD^+ at 37° C. in the absence or presence of ouabain (0.1 mM) at a wavelength of 340 nm. Na^+/K^+-ATPase activity was calculated as total ATPase activity minus ouabain-insensitive ATPase activity.
Confluent monolayers of renal proximal tubular cells (day 6 after seeding) were exposed to 200 μM S-(1,2-dichlorovinyl)-L-cysteine (dissolved in water) for 1.75 hours followed by toxicant removal and addition of fresh culture media. This method produces approximately 50% cell death and loss 24 hours after the exposure. In some experiments, exogenous collagen IV (50 μg/ml), collagen I (50 μg/ml), or function-stimulating antibodies to collagen-binding integrin subunits α2 or β1 (5 μg/ml) was added daily to the culture media of S-(1,2-dichlorovinyl)-L-cysteine-injured renal proximal tubular cells cultured in the absence of pharmacological concentrations of L-ascorbic acid-2-phosphate. Function-stimulating antibodies to collagen-binding integrin α1 are not commercially available at this time. On days 1 and 6 following S-(1,2-dichlorovinyl)-L-cysteine exposure, active Na^+ transport or Na^+/K^+-ATPase activity, and collagen-binding integrin expression and/or localization in the remaining sublethally injured renal proximal tubular cells was determined as described below.
Total ATPase activity was measured as described above. […]

[2] = test system: collagen-binding integrin subunits α1, α2, and β1; test: Subcellular localization of CBIs by confocal microscopy; type: cell-based, rabbit; details: for CBIs on the apical membrane of injured RPTC: by day 6 after DCVC; for CBIs on the apical membrane of injured RPTC / basal localization of CBI subunits α1, α2, and β1 in injured RPTC: pharmacological AscP or exogenous collagen IV
Description: Collagen-binding integrin localization was determined using confocal microscopy of renal proximal tubular cell monolayers stained with monoclonal antibodies to integrin subunits α1, α2, and β1. Renal proximal tubular cell monolayers were washed 3 times with PBS and fixed with 10% buffered formalin (4% formaldehyde) for 20 minutes at room temperature. After 3 washes with PBS, monolayers were permeabilized in PTB buffer (PBS+0.3% Triton X-100+0.1% BSA) for 10 minutes at room temperature. Monolayers were washed 3 times with 0.1% BSA in PBS and incubated with 8% BSA in PBS for 30 minutes at room temperature. BSA (1%) in PBS containing 5 μg/ml of specific integrin antibodies or non-specific IgG was added to renal proximal tubular cell monolayers and incubated overnight a t 4° C. with moderate shaking. Following 3 washes with PTB buffer, monolayers were incubated for 2 hours in the dark at room temperature with 1% BSA in PBS containing a 1:100 dilution of a FITC-conjugated goat anti-mouse IgG. Monolayers were washed 3 times with PTB, and glass coverslips were applied after the addition of 2–3 drops of mounting media. Confocal microscopy was performed using a Zeiss confocal laser scanning microscope (Model 410, Carl Zeiss, Inc., Thornwood, N.Y.). Basal and apical membrane locations were determined visually in the Z-plane using light field microscopy. Two to three photomicrographs per monolayer at the basal and apical membranes were then scanned with an omnichrome laser filtered at 488 nm to detect FITC.

Compound | Na^+/K^+-ATPase activity higher than in injured RPTC in physiological AscP ([1]; day 6 after DCVC, 500 μM AscP) | Na^+/K^+-ATPase activity, untreated RPTC, 50 μM vs 500 μM ([1]; uninjured RPTC) | CBIs on the apical membrane of injured RPTC [2] | basal localization of CBI subunits α1, α2, and β1 in injured RPTC ([2]; day 6 after DCVC) | decrease in Na^+/K^+-ATPase activity ([1]; one day after DCVC (200 μM), both 50 μM and 500 μM AscP) [%] | apical membrane distribution of CBI subunits α1, α2, and β1 ([2]; day 1 after DCVC injury) | CBI α1, α2, and β1 staining at the basal membrane ([2]; day 1 following DCVC) | apical membrane distribution of CBIs ([2]; day 6 after DCVC injury) | basal localization of CBI subunits α1, α2, and β1 ([2]; day 6 after DCVC, absence of pharmacological AscP or collagen IV) | Na^+/K^+-ATPase activity in injured RPTC ([1]; day 6 after DCVC injury, 50 μg/ml)
O=C1O[C@H]([C@@H](O)CO)C(O)=C1OP(=O)(O)O [L-ascorbic acid-2-phosphate, L-Ascorbic acid-2-phosphate] | approximately 150% | equivalent at all time points | complete disappearance | return to control levels |  |  |  |  |  | 
N[C@@H](CSC(Cl)=CCl)C(=O)O [S-(1,2-dichlorovinyl)-L-cysteine] |  |  |  |  | ~65 | partially redistributed to the apical membrane | decreased compared to controls | continued to exhibit CBI is distributed to the apical membrane | still decreased compared to sub-confluent controls | 
collagen IV: Human placenta collagen IV (Sigma); triple helical, containing only α1 and α2 chains |  |  | complete disappearance | return to control levels |  |  |  |  |  | significantly increased
